Test results published in ChEMBL document CHEMBL4261654, “Synthesis and in vitro antitumor activity of novel alkenyl derivatives of pyridoxine, bioisosteric analogs of feruloyl methane” (Bioorg Med Chem, 2018).
Calls of active or inactive are those of the source. The calls are words filed in the database; no cut-off is given here.

Tests used:
MCF7 = experiment: Antiproliferative activity against human MCF7 cells after 72 hrs by MTT assay; format: functional, cell-based; conditions: MCF7, 72 h
HEK293 = experiment: Antiproliferative activity against human HEK293 cells after 72 hrs by MTT assay; format: cell-based; conditions: HEK293, 72 h
[1] = Antioxidant activity assessed as ferric ion reducing activity at 20 to 320 umol after 20 mins by FRAP assay; format: functional

Structure (SMILES)	IC50 (MCF7) [µM]	IC50 (HEK293) [µM]	Activity [1]
CC(=O)/C=C/c1cnc(C)c2c1COC(C)(C)O2	6.6	17	–
CC(=O)/C=C/c1cnc(C)c(O)c1CO	398	121	–
CCCC1OCc2c(/C=C/C(C)=O)nc(C)c(O)c2CO1 (centres undefined)	4.6	13	–
CC(=O)/C=C/c1cnc(C)c2c1COC(C(C)(C)C)O2 (centres undefined)	4.1	1.2	–
CCCCCCCCCC(C)C1OCc2c(/C=C/C(C)=O)nc(C)c(O)c2CO1 (centres undefined)	2.9	1.4	–
O=C1O[C@H]([C@@H](O)CO)C(O)=C1O	–	–	Active
O=c1c(O)c(-c2ccc(O)c(O)c2)oc2cc(O)cc(O)c12	–	–	Active
CC(=O)/C=C/c1nc(C)c(O)c2c1COC(C)(C)OC2	27	38	–
